Measured values reported in ChEMBL document CHEMBL5614367, “Hydroxamic acid hybrids: Histone deacetylase inhibitors with anticancer therapeutic potency” (Eur J Med Chem, 2023).
Each block holds one compound with its values, some of them ahead of it.

Columns and labels:
[1] = target: T1, Protein deacetylase HDAC6 (Homo sapiens, UniProt Q9UBN7); assay: Inhibition of HDAC6 (unknown origin)
T1 sequence (Q9UBN7 whole entry): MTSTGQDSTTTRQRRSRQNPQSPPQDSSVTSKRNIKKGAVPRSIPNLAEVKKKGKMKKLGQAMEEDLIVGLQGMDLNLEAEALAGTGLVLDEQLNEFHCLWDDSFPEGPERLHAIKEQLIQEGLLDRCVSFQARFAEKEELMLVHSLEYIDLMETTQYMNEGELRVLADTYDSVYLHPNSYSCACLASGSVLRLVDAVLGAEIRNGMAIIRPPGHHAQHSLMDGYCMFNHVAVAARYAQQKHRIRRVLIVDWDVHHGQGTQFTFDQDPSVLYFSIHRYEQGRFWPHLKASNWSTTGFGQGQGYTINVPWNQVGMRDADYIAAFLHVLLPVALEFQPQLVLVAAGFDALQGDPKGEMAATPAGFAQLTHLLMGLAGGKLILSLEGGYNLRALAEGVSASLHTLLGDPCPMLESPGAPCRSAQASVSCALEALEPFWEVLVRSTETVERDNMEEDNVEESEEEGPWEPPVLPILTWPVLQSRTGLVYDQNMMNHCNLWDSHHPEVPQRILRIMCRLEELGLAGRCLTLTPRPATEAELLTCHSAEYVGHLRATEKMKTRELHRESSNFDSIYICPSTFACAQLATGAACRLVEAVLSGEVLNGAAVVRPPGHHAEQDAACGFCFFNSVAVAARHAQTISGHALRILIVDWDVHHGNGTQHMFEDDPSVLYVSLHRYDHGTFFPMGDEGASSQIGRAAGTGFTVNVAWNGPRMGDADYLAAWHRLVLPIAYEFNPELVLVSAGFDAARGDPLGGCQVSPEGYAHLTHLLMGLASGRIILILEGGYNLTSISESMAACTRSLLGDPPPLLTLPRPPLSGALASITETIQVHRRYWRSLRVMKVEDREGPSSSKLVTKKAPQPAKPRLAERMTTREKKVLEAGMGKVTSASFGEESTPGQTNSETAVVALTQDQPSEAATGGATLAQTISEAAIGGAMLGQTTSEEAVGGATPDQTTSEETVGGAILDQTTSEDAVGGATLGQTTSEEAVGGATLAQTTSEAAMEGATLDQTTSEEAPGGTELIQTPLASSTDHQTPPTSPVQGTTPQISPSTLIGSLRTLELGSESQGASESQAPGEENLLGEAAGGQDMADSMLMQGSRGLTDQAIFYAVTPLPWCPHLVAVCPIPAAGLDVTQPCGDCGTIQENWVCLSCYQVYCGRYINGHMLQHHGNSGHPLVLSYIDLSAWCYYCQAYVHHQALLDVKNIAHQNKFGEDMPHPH

[2] = system: SK-OV-3; assay: Antiproliferative activity against human SK-OV-3 cells assessed as inhibition of cell growth incubated for 72 hrs by CCK-8 assay; assay type: functional, cell-based; details: SK-OV-3, 72 h
[3] = system: A2780; assay: Antiproliferative activity against human A2780 cells assessed as inhibition of cell growth incubated for 72 hrs by CCK-8 assay; assay type: functional, cell-based; details: A2780, 72 h
[4] = system: SK-OV-3; assay: Antitumor activity against human SK-OV-3 cells xenografted in female Balb/c nude mouse assessed as reduction in tumor growth at 50 mg/kg, sc administered once a day and measured every 2 to 3 days for 19 days relative to control; assay type: functional; parameters: scale not given: the % may be the effect or the level left; details: time 19 day
[5] = target: T2, Histone deacetylase 8 (Homo sapiens, UniProt Q9BY41); assay: Inhibition of HDAC8 (unknown origin)
T2 sequence (Q9BY41 whole entry): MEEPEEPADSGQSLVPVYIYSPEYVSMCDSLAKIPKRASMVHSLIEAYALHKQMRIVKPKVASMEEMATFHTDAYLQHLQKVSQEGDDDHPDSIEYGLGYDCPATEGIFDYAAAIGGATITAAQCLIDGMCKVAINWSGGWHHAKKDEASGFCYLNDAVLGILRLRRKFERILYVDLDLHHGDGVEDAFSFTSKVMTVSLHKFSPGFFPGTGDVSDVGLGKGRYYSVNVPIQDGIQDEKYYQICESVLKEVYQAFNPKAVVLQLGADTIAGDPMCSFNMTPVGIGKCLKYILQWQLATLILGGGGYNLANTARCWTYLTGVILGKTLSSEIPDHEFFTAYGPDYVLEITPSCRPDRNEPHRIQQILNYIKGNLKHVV

[6] = Metabolic stability in liver microsomes (unknown origin) assessed as clearance; assay type: ADME, Microsome; details: read-out: CLH
[7] = Metabolic stability in liver microsomes (unknown origin) assessed as half life; assay type: ADME, Microsome
[8] = system: BE(2)-C; assay: Antitumor activity against human BE2C cells xenografted in mouse assessed as tumor growth inhibition at 50 mg/kg, ip relative to control; assay type: functional; details: read-out: TGI
[9] = system: U-87 MG; assay: Antitumor activity against luciferase-transferred human U-87 MG cells xenografted in athymic nude mouse assessed as survival time at 150 mg/kg, po measured for 20 days; assay type: functional, U-87MG ATCC; details: time 20 day
[10] = system: C6; assay: Antitumor activity against rat C6 cells allografted in Sprague-Dawley rat assessed as survival time at 150 mg/kg, po measured for 20 days; assay type: functional; details: time 20 day
[11] = system: BE(2)-C; assay: Antitumor activity against human BE2C cells xenografted in mouse assessed as tumor growth inhibition at 5 mg/kg, ip relative to control; assay type: functional; details: read-out: TGI
[12] = system: BE(2)-C; assay: Antitumor activity against human BE2C cells xenografted in mouse assessed as tumor growth inhibition at 5 mg/kg, ip in presence of 50 mg/kg vorinostat relative to control; assay type: functional; details: read-out: TGI
[13] = target: Histone deacetylase 1 (Homo sapiens, UniProt Q13547); assay: Inhibition of HDAC1 (unknown origin)
Sequence of Histone deacetylase 1 (Q13547 whole entry): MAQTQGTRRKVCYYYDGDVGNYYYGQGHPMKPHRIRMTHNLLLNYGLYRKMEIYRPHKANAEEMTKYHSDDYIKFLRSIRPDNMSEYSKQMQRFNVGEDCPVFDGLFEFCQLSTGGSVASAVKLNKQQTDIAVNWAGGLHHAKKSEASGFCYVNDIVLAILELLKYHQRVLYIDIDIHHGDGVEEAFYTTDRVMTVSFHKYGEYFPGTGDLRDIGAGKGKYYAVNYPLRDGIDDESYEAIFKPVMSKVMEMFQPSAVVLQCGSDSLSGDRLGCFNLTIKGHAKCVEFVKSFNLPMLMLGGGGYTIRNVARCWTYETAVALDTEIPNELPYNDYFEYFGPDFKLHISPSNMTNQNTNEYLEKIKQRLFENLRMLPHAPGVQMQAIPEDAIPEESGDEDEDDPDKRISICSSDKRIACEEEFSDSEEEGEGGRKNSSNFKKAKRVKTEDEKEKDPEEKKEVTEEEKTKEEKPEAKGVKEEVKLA

[14] = target: Histone deacetylase 2 (Homo sapiens, UniProt Q92769); assay: Inhibition of HDAC2 (unknown origin)
Sequence of Histone deacetylase 2 (Q92769 whole entry): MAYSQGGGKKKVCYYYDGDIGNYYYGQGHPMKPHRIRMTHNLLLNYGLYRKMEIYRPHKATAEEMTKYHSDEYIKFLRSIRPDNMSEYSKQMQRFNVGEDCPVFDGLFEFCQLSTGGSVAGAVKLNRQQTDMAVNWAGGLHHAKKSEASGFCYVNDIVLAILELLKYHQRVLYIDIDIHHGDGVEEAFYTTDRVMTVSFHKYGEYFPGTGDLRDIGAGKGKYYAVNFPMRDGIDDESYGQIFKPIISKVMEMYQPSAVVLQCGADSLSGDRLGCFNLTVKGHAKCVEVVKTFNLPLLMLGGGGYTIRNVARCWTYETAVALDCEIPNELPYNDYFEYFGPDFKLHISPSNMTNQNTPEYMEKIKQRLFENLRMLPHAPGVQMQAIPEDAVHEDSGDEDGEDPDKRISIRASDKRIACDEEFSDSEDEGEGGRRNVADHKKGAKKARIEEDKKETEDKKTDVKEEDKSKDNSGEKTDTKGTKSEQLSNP

[15] = Inhibition of PI3K (unknown origin); parameters: species or system Homo sapiens
[16] = target: Histone deacetylase 3 (Homo sapiens, UniProt O15379); assay: Inhibition of HDAC3 (unknown origin)
Sequence of Histone deacetylase 3 (O15379 whole entry): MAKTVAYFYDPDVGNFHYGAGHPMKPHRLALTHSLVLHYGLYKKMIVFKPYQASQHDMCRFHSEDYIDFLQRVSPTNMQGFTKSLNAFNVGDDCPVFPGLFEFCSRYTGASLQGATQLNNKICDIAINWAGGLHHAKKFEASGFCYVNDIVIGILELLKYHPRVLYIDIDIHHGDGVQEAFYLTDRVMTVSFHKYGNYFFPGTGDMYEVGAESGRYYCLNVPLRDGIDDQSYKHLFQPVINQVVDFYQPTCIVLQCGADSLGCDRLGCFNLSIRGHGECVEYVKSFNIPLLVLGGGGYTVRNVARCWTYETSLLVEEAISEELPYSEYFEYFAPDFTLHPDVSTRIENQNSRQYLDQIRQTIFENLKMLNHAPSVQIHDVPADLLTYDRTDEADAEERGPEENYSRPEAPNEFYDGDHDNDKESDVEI

[17] = target: Polyamine deacetylase HDAC10 (Homo sapiens, UniProt Q969S8); assay: Inhibition of HDAC10 (unknown origin)
Sequence of Polyamine deacetylase HDAC10 (Q969S8 whole entry): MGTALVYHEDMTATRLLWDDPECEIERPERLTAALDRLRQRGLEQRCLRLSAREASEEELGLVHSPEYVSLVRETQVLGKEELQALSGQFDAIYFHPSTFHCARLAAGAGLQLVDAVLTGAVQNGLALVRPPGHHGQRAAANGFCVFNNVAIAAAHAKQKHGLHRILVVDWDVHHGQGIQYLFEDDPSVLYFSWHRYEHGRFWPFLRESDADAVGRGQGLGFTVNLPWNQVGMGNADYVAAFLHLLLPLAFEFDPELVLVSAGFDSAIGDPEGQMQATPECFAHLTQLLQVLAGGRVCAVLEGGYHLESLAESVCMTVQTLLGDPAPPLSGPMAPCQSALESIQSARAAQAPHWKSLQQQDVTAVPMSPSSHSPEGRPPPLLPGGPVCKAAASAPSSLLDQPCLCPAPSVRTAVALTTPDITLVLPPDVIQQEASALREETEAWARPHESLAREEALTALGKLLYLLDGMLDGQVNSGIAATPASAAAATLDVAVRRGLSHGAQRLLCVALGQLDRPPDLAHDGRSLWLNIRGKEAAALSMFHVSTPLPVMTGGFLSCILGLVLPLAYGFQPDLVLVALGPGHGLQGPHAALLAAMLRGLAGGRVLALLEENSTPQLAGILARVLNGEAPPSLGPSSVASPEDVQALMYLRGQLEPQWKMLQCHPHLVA

[18] = target: Histone deacetylase 11 (Homo sapiens, UniProt Q96DB2); assay: Inhibition of HDAC11 (unknown origin)
Sequence of Histone deacetylase 11 (Q96DB2 whole entry): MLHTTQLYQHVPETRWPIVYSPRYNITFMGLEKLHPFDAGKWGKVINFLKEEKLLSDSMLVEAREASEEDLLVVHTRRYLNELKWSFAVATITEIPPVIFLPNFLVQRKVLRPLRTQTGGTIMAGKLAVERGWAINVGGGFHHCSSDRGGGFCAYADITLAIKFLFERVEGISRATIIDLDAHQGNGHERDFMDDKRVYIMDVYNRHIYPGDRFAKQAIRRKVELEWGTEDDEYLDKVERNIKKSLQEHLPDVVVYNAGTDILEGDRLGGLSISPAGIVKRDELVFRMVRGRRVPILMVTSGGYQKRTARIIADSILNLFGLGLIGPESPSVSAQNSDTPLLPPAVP

[19] = system: Daudi; assay: Cytotoxicity against human Daudi cells assessed as inhibition of cell growth measured after 72 hrs by CellTiter-Glo luminescent viability assay; assay type: functional, cell-based
[20] = system: NCI-H2122; assay: Cytotoxicity against human NCI-H2122 cells assessed as inhibition of cell growth measured after 72 hrs by CellTiter-Glo luminescent viability assay; assay type: functional, cell-based; details: NCI-H2122, 72 h
[21] = system: HCT-116; assay: Cytotoxicity against human HCT-116 cells assessed as inhibition of cell growth measured after 72 hrs by CellTiter-Glo luminescent viability assay; assay type: functional, cell-based; details: HCT-116, 72 h
[22] = system: TMD8; assay: Cytotoxicity against human TMD8 cells assessed as inhibition of cell growth measured after 72 hrs by CellTiter-Glo luminescent viability assay; assay type: functional, cell-based; details: TMD8, 72 h
[23] = system: Ramos; assay: Cytotoxicity against human Ramos cells assessed as inhibition of cell growth measured after 72 hrs by CellTiter-Glo luminescent viability assay; assay type: functional, cell-based
[24] = system: K562; assay: Cytotoxicity against human K562 cells assessed as inhibition of cell growth measured after 72 hrs by CellTiter-Glo luminescent viability assay; assay type: functional, cell-based; details: K562, 72 h
[25] = system: THP-1; assay: Cytotoxicity against human THP-1 cells assessed as inhibition of cell growth measured after 72 hrs by CellTiter-Glo luminescent viability assay; assay type: functional, cell-based; details: THP-1, 72 h
[26] = system: U-937; assay: Cytotoxicity against human U-937 cells assessed as inhibition of cell growth measured after 72 hrs by CellTiter-Glo luminescent viability assay; assay type: functional, cell-based; details: U-937, 72 h
[27] = system: Calu-6; assay: Cytotoxicity against human Calu-6 cells assessed as inhibition of cell growth measured after 72 hrs by CellTiter-Glo luminescent viability assay; assay type: functional, cell-based; details: Calu-6, 72 h
[28] = system: NCI-H460; assay: Cytotoxicity against human NCI-H460 cells assessed as inhibition of cell growth measured after 72 hrs by CellTiter-Glo luminescent viability assay; assay type: functional, cell-based; details: NCI-H460, 72 h
[29] = system: PC-9; assay: Cytotoxicity against human PC-9 cells assessed as inhibition of cell growth measured after 72 hrs by CellTiter-Glo luminescent viability assay; assay type: functional, cell-based; details: PC-9, 72 h
[30] = system: NCI-H1975; assay: Cytotoxicity against human NCI-H1975 cells assessed as inhibition of cell growth measured after 72 hrs by CellTiter-Glo luminescent viability assay; assay type: functional, cell-based; details: NCI-H1975, 72 h
[31] = system: NCI-H358; assay: Cytotoxicity against human NCI-H358 cells assessed as inhibition of cell growth measured after 72 hrs by CellTiter-Glo luminescent viability assay; assay type: functional, cell-based; details: NCI-H358, 72 h
[32] = system: COLO 205; assay: Cytotoxicity against human COLO 205 cells assessed as inhibition of cell growth measured after 72 hrs by CellTiter-Glo luminescent viability assay; assay type: functional, cell-based; details: COLO 205, 72 h
[33] = system: SW-620; assay: Cytotoxicity against human SW620 cells assessed as inhibition of cell growth measured after 72 hrs by CellTiter-Glo luminescent viability assay; assay type: functional, cell-based; details: SW-620, 72 h
[34] = system: LoVo; assay: Cytotoxicity against human LoVo cells assessed as inhibition of cell growth measured after 72 hrs by CellTiter-Glo luminescent viability assay; assay type: functional, cell-based
[35] = system: SW480; assay: Cytotoxicity against human SW480 cells assessed as inhibition of cell growth measured after 72 hrs by CellTiter-Glo luminescent viability assay; assay type: functional, cell-based; details: SW480, 72 h
[36] = system: MC-38; assay: Cytotoxicity against mouse MC38 cells assessed as inhibition of cell growth measured after 72 hrs by CellTiter-Glo luminescent viability assay; assay type: functional, cell-based; details: MC-38, 72 h
[37] = Cmax in tumor of female SCID mouse xenografted with human Daudi cells at 25 to 100 mg/kg, iv measured upto 24 hrs by LC-MS/MS analysis; assay type: ADME, organism-based, Neoplasm; details: dose 25-100 mg/kg
[38] = AUC in tumor of female SCID mouse xenografted with human Daudi cells at 25 to 100 mg/kg, iv measured upto 24 hrs by LC-MS/MS analysis; assay type: ADME, organism-based, Neoplasm; details: in vivo, dose 25-100 mg/kg
[39] = Half life in tumor of female SCID mouse xenografted with human Daudi cells at 25 to 100 mg/kg, iv measured upto 24 hrs by LC-MS/MS analysis; assay type: ADME, organism-based, Neoplasm; details: dose 25-100 mg/kg
[40] = system: U-87 MG; assay: cells; assay type: functional, cell-based, U-87MG ATCC; details: Homo sapiens, 72 h
Description: Antiproliferative activity against human U-87 MG cells assessed as inhibition of cell growth measured after 72 hrs by MTT assay

[41] = system: C6; assay: cells; assay type: functional, cell-based; details: Rattus norvegicus, C6, 72 h
Description: Antiproliferative activity against rat C6 cells assessed as inhibition of cell growth measured after 72 hrs by MTT assay

[42] = system: U-87 MG; assay: Antitumor activity against luciferase-transferred human U-87 MG cells xenografted in athymic nude mouse assessed as survival time at 25 mg/kg, po measured for 20 days; assay type: functional, U-87MG ATCC; details: time 20 day
[43] = system: C6; assay: Antitumor activity against rat C6 cells allografted in Sprague-Dawley rat assessed as survival time at 20 mg/kg, po measured for 20 days; assay type: functional; details: time 20 day

SMILES: COc1cc(-c2cccc(-c3ccc(/C=C/C(=O)NO)cc3)n2)cc(OC)c1OC
- IC50 [5]: 117 nM
- CLint scaled [6]: 22.8 mL/min/kg
- half-life [7]: 0.913 h
- inhibition in vivo at 50 mg/kg [8]: 61%

SMILES: O=C(CCCCCCC(=O)Nc1ccccc1)NO [VORINOSTAT]
- Survival [9]: 13 days
- Survival [10]: 13 days

SMILES: CC(=O)O[C@H]1C(=O)[C@@]2(C)[C@H]([C@H](OC(=O)c3ccccc3)[C@]3(O)C[C@H](OC(=O)[C@H](O)[C@@H](NC(=O)c4ccccc4)c4ccccc4)C(C)=C1C3(C)C)[C@]1(OC(C)=O)CO[C@@H]1C[C@@H]2O [PACLITAXEL]
- inhibition in vivo at 5 mg/kg [11]: 30%
- inhibition in vivo at 5 mg/kg [12]: 44%

SMILES: O=C(/C=C/c1cccc(S(=O)(=O)n2ccc3cccnc32)c1)NO
- IC50 [1]: 32 nM
- IC50 [40]: 1850 nM
- IC50 [41]: 2250 nM
- Survival [42]: >20 days
- Survival [43]: >20 days

Continued, in another order:

- IC50 [1]: 180 nM
- IC50 [2]: 870 nM
- IC50 [3]: 5400 nM
SMILES: COc1ccc(-c2cc(-c3ccc(C(C)C)cc3)cnc2NCc2ccc(C(=O)NO)cc2)cc1
- Activity [4]: ~35%

- IC50 [13]: 0.9 nM
- IC50 [14]: 0.9 nM
- IC50 [15]: 9.3 nM
- IC50 [16]: 0.9 nM
- IC50 [17]: 0.9 nM
- IC50 [18]: 0.9 nM
- Cmax [37]: 14500 ng/g
- AUC [38]: 17157.9 ng·h/g
- half-life [39]: 7.9 h
SMILES: CNc1ccc(-c2nc(N3CCOCC3)c3sc(CN(C)c4ncc(C(=O)NO)cn4)cc3n2)cn1
- IC50 [19]: 0.3 nM
- IC50 [20]: 0.3 nM
- IC50 [21]: 0.3 nM
- IC50 [22]: 0.3 nM
- IC50 [23]: 0.3 nM
- IC50 [24]: 0.3 nM
- IC50 [25]: 0.3 nM
- IC50 [26]: 0.3 nM
- IC50 [27]: 0.3 nM
- IC50 [28]: 0.3 nM
- IC50 [29]: 0.3 nM
- IC50 [30]: 0.3 nM
- IC50 [31]: 0.3 nM
- IC50 [32]: 0.3 nM
- IC50 [33]: 0.3 nM
- IC50 [34]: 0.3 nM
- IC50 [35]: 0.3 nM
- IC50 [36]: 0.3 nM
